Laboratory results published in patent publication US11590117B2, “Treatment of a hematologic malignancy with 2-(4-chlorophenyl)-n-((2-(2,6-dioxopiperidin-3-yl)-1-oxoisoindolin-5-yl)methyl)-2,2-difluoroacetamide” (priority 2016, dated 2023).
Read-outs that look alike come from different tables or passages of the source.

Assays:
selected AML cell lines = assay: Annexin V/7-AAD flow cytometry apoptosis assay, panel of selected AML cell lines; assay type: cell-based, human; conditions: after 24 and 48 hours, in 4 out of the 5 cell lines evaluated
Method: Cell Apoptosis Assays: The ability of Compound 1 to induce apoptosis was assessed in selected AML cell lines and healthy PBMCs at the time points and compound concentrations indicated. For Annexin V/7-AAD readout by flow cytometry, AML cell lines were plated into flat bottom 96-well plates (BD Falcon) at a seeding density of 0.1 to 0.3×10^6 cells per mL in 200 μL complete media. Compound 1 was dispensed onto the plates and the cells were incubated for the times indicated. For frozen PBMCs, cells were thawed as previously described and plated at a seeding density of 1×10^6 cells per mL in 200 μL on Corning® BioCoat™ T-Cell Activation Anti-Human CD3 96-well plates (Corning Inc., Corning, N.Y.). Compound 1 was dispensed onto the plates and the cells were incubated for the times indicated. […] One hundred microliters of Annexin V/7-AAD buffer was added per well and the cells incubated for 15 minutes before being analyzed using the Attune Flow Cytometer (Life Technologies, Carlsbad, Calif.). For caspase 3/7 activity, the remaining 100 μL was incubated with CellEvent™ Caspase-3/7 Green ReadyProbes® Reagent (1:1000 dilution; Molecular Probes) for 15 minutes before being analyzed using the Attune Flow Cytometer. […]
Compound 1 Induces Apoptosis in Acute Myeloid Leukemia Cell Lines. […] 0.01 μM and 0.1 μM and apoptosis was assessed over time.

AML cell lines = assay: IncuCyte Kinetic Caspase-3/7 Apoptosis Assay, panel of twenty AML cell lines; assay type: cell-based; conditions: Homo sapiens
From the text: Methods. Acute Myeloid Leukemia Cell Line Panel: Human AML cell lines, AML-193, F36-P, GDM-1, HL-60, HNT-34, Kasumi-1, Kasumi-3, KG-1, KG-1a, ML-2, MOLM-13, MUTZ-8, MV-4-11, NOMO-1, OCI-AML2, OCI-AML3, SIG-M5, TF-1, THP-1, and UT-7 were obtained from American Type Culture Collection (ATCC; Manassas, Va.) and Deutsche Sammlung von Mikroorganismen und Zellkulturen (DSMZ) (Germany) cell banks. The AML panel includes cell line(s) from each FAB classification (M0-M7) (Table 7).
Cell Culture Conditions: Cell lines were maintained in growth media containing 20% fetal bovine serum (FBS) (Hyclone Cat no. SH30910.03, Lot no. AZF188864; Corning REFno. 35-010-CV, Lot no. 35010124) supplemented with or without 10 ng/mL human recombinant granulocyte-macrophage colony stimulating factor (Sigma-Aldrich Cat no. SRP3050) (Table 8). Medium was purchased from ATCC (Cat no. 30-2001, 30-2002, 30-2003, 30-2005) and Gibco (REF no. 12561-056). Human recombinant granulocyte macrophage colony stimulating factor (GM-CSF) was expressed in Escherichia coli. The cell doubling times for each cell line were provided by ATCC and DSMZ. Cells were maintained in humidified incubators at 5% carbon dioxide (CO2). All cell lines were acclimated to Eagle's minimal essential medium (EMEM)+20% FBS with or without GM-CSF over 2 to 4 weeks prior to live cell imaging using IncuCyte Zoom (Essen Biosciences). The use of EMEM was necessary to eliminate background fluorescence caused by riboflavin in most media.
Incubation of Cell Cultures with Compound 1: Compound 1 was provided for studies by Celgene chemistry group at a stock concentration of 30 mM in 20 μL dimethyl sulfoxide (DMSO) frozen. Costar 96-well cell culture plates (Corning Cat no. 3595) were coated with 100 μL of 10 µg/mL fibronectin (Sigma-Aldrich Cat no. F1141) for 4 hours at 37° C. and immediately used or refrigerated overnight for later use. Cells (3000 to 6000 cells) were plated in growth medi in fibronectin-coated 96-well plates and incubated for a minimum of a few hours to overnight. Cells were incubated with a 12-point concentration response in triplicate with Compound 1 ([…]) including DMSO and Media controls. A 3-fold serial dilution of Compound 1 starting from a concentration of 200 μM in 0.6% DMSO (diluted in Media) was performed. For most sensitive cell lines, a 3-fold serial dilution of Compound 1 starting from a concentration of 20 μM in 0.6% DMSO (diluted in media) was performed. A volume of 5 μL or 10 μL for each dilution was added to 100 μL or 200 μL cells, respectively (0.3% DMSO final) and incubated for live cell imaging.
Live Cell Imaging on IncuCyte Zoom: Following incubation of cells with Compound 1, diluted Caspase 3/7 reagent (Essen Biosciences Cat no. 4440) is added to each well. The Caspase-3/7 reagent couples the activated caspase-3/7 recognition motif (DEVD) to NucView™488, a DNA intercalating dye. The cleavage of substrate by activated caspase-3/7 results in the release of the DNA dye and green fluorescent staining of nuclear DNA. This allows imaging of cells undergoing caspase-3/7 mediated apoptosis over time. Caspase-3/7 activation was quantified using the IncuCyte™ ZOOM basic analyzer. Red-labeled cell lines were also imaged over time using the IncuCyte™ ZOOM basic analyzer, for determination of both cell doubling time and Compound 1 effect on cell viability. Experiments were performed at least two times in each cell line.
Next, a 4 parameter log-logistic model was used to determine relative EC50 at each time point by the ‘drm’ function from the R ‘drc’ package (Ritz C, Streibig J C. Bioassay Analysis using R. J. Statist. Software 2005; 12(5):1-22). Goodness of fit was measured by R squared (coefficient of determination or the amount of variation explained by the model fit) of ≥80%, and EC50 parameter was assessed by having a ratio of standard error to the parameter of ≤40%, and the presence of at least one concentration point above and below the reported EC50. […]

For `O=C1CCC(N2Cc3cc(CNC(=O)C(F)(F)c4ccc(Cl)cc4)ccc3C2=O)C(=O)N1` (centres unmarked) [Compound 1, 2-(4-chlorophenyl)-N-((2-(2,6-dioxopiperidin-3-yl)-1-oxoisoindolin-5-yl)methyl)-2,2-difluoroacetamide], the induction of apoptosis (selected AML cell lines) was “marked induction of apoptosis”, the EC50 (AML cell lines; 12 h, 8 most sensitive cell lines (5 lines with curve fits), 12 hours, read-out: apoptosis EC50 12hr (range)) was 0.053 to 0.227 µM and the EC50 (AML cell lines; 24 h, 14 of 20 cell lines with successful curve fits, 24 hours, read-out: apoptosis EC50 24hr (range)) was 0.007 to 0.916 µM. The EC50 (AML cell lines; 48 h, eight highly sensitive cell lines (HNT-34, Kasumi-3, HL-60, ML-2, MV4-11, KG-1, MUTZ-8, GDM-1), 48 hours, read-out: apoptosis EC50 48hr (range)) was 0.004 to 0.049 µM, the EC50 (AML cell lines; 48 h, eight highly sensitive cell lines, 48 hours, read-out: apoptosis average EC50 48hr) was 0.027 µM and the EC50 (AML cell lines; 48 h, four least sensitive cell lines (UT-7, F36-P, MOLM-13, OCI-AML3), 48 hours, read-out: apoptosis EC50 48hr (range)) was 0.231 to 0.896 µM. It also gave an EC50 (AML cell lines; 48 h, four least sensitive cell lines (UT-7, F36-P, MOLM-13, OCI-AML3), 48 hours, read-out: apoptosis average EC50 48hr) of 0.458 µM, an EC50 (AML cell lines; 48 h, seven moderately sensitive cell lines (OCI-AML-2, AML-193, SIG-M5, Kasumi-1, TF-1, Nomo-1, KG-1a), 48 hours, read-out: apoptosis EC50 48hr (range)) of 0.081 to 0.145 µM and an EC50 (AML cell lines; 48 h, seven moderately sensitive cell lines, 48 hours, read-out: apoptosis average EC50 48hr) of 0.114 µM. For the same compound, the EC50 (AML cell lines; 72 h, AML cell panel, 72 hours, read-out: apoptosis EC50 72hr (range)) was 0.003 to 0.971 µM and the EC50 (AML cell lines; 96 h, AML cell panel, 96 hours, read-out: apoptosis EC50 96hr (range)) was 0.001 to 0.418 µM.
